Reference: the supplement of paper PMC13380429

Tests used:
Conditions in all cases: 72 h
[1] = tested on: HepG2; assay: relative viability EC50 (midpoint between 100% and the lowest measured viability); higher = less toxic
[2] = tested on: Calu-3; assay: as above
[3] = tested on: U2OS; assay: as above
[4] = tested on: Vero E6; assay: as above
[5] = tested on: Caco-2; assay: as above
[6] = tested on: HepG2; assay: drug sensitivity score (DSS) for viability; higher = more toxic; extreme values may be limits of the assay
[7] = tested on: Calu-3; assay: as above
[8] = tested on: U2OS; assay: as above
[9] = tested on: Vero E6; assay: as above
[10] = tested on: Caco-2; assay: as above
[11] = tested on: HepG2; assay: cell viability relative to DMSO; higher = less toxic
[12] = tested on: Calu-3; assay: as above
[13] = tested on: U2OS; assay: as above
[14] = tested on: Vero E6; assay: as above
[15] = tested on: Caco-2; assay: as above

Structure (SMILES) | relative viability EC50 [1] [µM] | relative viability EC50 [2] [µM] | relative viability EC50 [3] [µM] | relative viability EC50 [4] [µM] | relative viability EC50 [5] [µM] | drug sensitivity score [6] | drug sensitivity score [7] | drug sensitivity score [8] | drug sensitivity score [9] | drug sensitivity score [10] | cell viability ([11]; 1 nM) [%] | cell viability ([11]; 10 nM) [%] | cell viability ([11]; 100 nM) [%] | cell viability ([11]; 1000 nM) [%] | cell viability ([11]; 10000 nM) [%] | cell viability ([12]; 1 nM) [%] | cell viability ([12]; 10 nM) [%] | cell viability ([12]; 100 nM) [%] | cell viability ([12]; 1000 nM) [%] | cell viability ([12]; 10000 nM) [%] | cell viability ([13]; 1 nM) [%] | cell viability ([13]; 10 nM) [%] | cell viability ([13]; 100 nM) [%] | cell viability ([13]; 1000 nM) [%] | cell viability ([13]; 10000 nM) [%] | cell viability ([14]; 1 nM) [%] | cell viability ([14]; 10 nM) [%] | cell viability ([14]; 100 nM) [%] | cell viability ([14]; 1000 nM) [%] | cell viability ([14]; 10000 nM) [%] | cell viability ([15]; 1 nM) [%] | cell viability ([15]; 10 nM) [%] | cell viability ([15]; 100 nM) [%] | cell viability ([15]; 1000 nM) [%] | cell viability ([15]; 10000 nM) [%]
CC(=O)c1ccc2c(c1)N(CCCN(C)C)c1ccccc1S2 [acepromazine] | > 10 | > 10 | > 10 | > 10 | > 10 | 0 | 0.3 | 0 | 0 | 0 | 98.3 | 96.4 | 101 | 91.9 | 94.7 | 111 | 102 | 92.9 | 96.1 | 83.5 | 101 | 95 | 100 | 93.9 | 95.7 | 101 | 101 | 99.4 | 99.4 | 89.2 | 104 | 93.1 | 99.6 | 86.4 | 102
Fc1ccc(-c2cncc(CN3CCN(c4cccc5c4OCCO5)CC3)c2)cc1 [adoprazine] | > 10 | > 10 | > 10 | > 10 | > 10 | 0 | 0 | 0 | 0 | 0 | 104 | 90.6 | 92.8 | 106 | 91.7 | 102 | 105 | 93.8 | 94.2 | 104 | 98.2 | 99.7 | 92.1 | 104 | 95.4 | 103 | 98.6 | 93.9 | 98.8 | 105 | 91 | 102 | 98.5 | 109 | 100
COc1cccc2c1C(=O)c1c(O)c3c(c(O)c1C2=O)C[C@@](O)(/C(CO)=N/NC(=O)CCCCCN1C(=O)C=CC1=O)C[C@@H]3O[C@H]1C[C@H](N)[C@H](O)[C@H](C)O1 [aldoxorubicin] | 0.102 | 0.233 | 0.513 | 1.38 | 0.367 | 21.6 | 13.2 | 14.2 | 5.8 | 11.7 | 97.4 | 94 | 50.3 | 20.3 | 5.8 | 93.4 | 98.1 | 75.7 | 45.1 | 28 | 102 | 98.4 | 94.8 | 28.5 | 6 | 105 | 101 | 103 | 82 | 41.9 | 104 | 102 | 93.2 | 41.4 | 30.9
Cc1c(N)c(=O)n(-c2ccccc2)n1C [ampyrone] | > 10 | > 10 | > 10 | > 10 | > 10 | 0 | 0 | 0 | 0 | 0 | 96.5 | 110 | 105 | 111 | 106 | 138 | 99.9 | 98.6 | 96.4 | 98.6 | 97.6 | 94.3 | 100 | 95.8 | 102 | 101 | 104 | 99.2 | 95.4 | 90.5 | 103 | 92 | 100 | 96.7 | 95
CCCC(CCC)C(=O)O[C@H]1C[C@H]2CC[C@@H](C1)[N+]2(C)C [anisotropine] | > 10 | > 10 | > 10 | > 10 | > 10 | 0 | 0 | 0 | 0 | 0 | 102 | 96.9 | 99 | 90.2 | 102 | 94.7 | 107 | 93.9 | 97.6 | 92 | 101 | 99 | 90.3 | 99.9 | 90.7 | 100 | 96.1 | 97.8 | 96.6 | 100 | 94.8 | 95.2 | 86.6 | 97.8 | 99.1
N#CC1(c2ccc(NC(=O)c3cccnc3NCc3ccncc3)cc2)CCCC1 [apatinib] | > 10 | > 10 | > 10 | > 10 | > 10 | 1.9 | 0 | 0 | 0 | 0 | 103 | 105 | 107 | 89.5 | 77.8 | 92.9 | 94.5 | 104 | 97.5 | 104 | 97.4 | 104 | 98 | 99.2 | 99.6 | 96.5 | 92 | 98.3 | 97.1 | 109 | 92.3 | 94.1 | 93.5 | 101 | 94.1
CC[C@@H]1/C=C(\C)C[C@H](C)C[C@H](OC)[C@H]2O[C@@](O)(C(=O)C(=O)N3CCCC[C@H]3C(=O)O[C@H](/C(C)=C/[C@@H]3CC[C@@H](O)[C@H](OC)C3)[C@H](C)[C@@H](O)CC1=O)[C@H](C)C[C@@H]2OC [ascomycin] | > 10 | > 10 | > 10 | > 10 | > 10 | 0 | 0 | 0 | 0 | 0.2 | 124 | 109 | 112 | 96 | 104 | 98.3 | 98.9 | 90.8 | 107 | 107 | 96 | 104 | 97.8 | 98.4 | 95.2 | 107 | 100 | 98.1 | 93.5 | 102 | 117 | 97.8 | 95 | 100 | 84.5
